≈ marks a conversion by molar mass, not a printed value. *1 amine or outer side, *2 acyl side, *3 side chain or, on linkers, in order; H or OH if unused. Where a SMILES comes first, the peptide text is derived from it. Where no end group is shown, it is not given here. The star is where a group is joined. NH(CH2)3(OCH2CH2)2O(CH2)3NH = C(CN[*:1])COCCOCCOCCCN[*:2]; X1 = NC(=O)CCC(=O)NCCCOCCOCCOCCCN*; Suc = O=C(CCC(=O)[*:2])[*:1]
Experiments:
FVIII inhibited plasma = assay: Defined Dual-Pathway Thrombin Generation Assay (DDPTGA, reagent C high), FVIII inhibited plasma; format: biochemical, human; details: for Peak IIa FEIBA EU / Peak IIa FVIIa EU / Peak Time FEIBA EU / Peak Time FVIIa EU: FVIII inhibited plasma; for Activity in the Defined Dual-Pathway Thrombin Generation Assay: summary, FVIII inhibited or deficient plasma
HERG channel = HERG channel (Homo sapiens, UniProt Q12809); assay: HERG inhibition, patch clamp assay
Sequence of HERG channel (Q12809 whole entry): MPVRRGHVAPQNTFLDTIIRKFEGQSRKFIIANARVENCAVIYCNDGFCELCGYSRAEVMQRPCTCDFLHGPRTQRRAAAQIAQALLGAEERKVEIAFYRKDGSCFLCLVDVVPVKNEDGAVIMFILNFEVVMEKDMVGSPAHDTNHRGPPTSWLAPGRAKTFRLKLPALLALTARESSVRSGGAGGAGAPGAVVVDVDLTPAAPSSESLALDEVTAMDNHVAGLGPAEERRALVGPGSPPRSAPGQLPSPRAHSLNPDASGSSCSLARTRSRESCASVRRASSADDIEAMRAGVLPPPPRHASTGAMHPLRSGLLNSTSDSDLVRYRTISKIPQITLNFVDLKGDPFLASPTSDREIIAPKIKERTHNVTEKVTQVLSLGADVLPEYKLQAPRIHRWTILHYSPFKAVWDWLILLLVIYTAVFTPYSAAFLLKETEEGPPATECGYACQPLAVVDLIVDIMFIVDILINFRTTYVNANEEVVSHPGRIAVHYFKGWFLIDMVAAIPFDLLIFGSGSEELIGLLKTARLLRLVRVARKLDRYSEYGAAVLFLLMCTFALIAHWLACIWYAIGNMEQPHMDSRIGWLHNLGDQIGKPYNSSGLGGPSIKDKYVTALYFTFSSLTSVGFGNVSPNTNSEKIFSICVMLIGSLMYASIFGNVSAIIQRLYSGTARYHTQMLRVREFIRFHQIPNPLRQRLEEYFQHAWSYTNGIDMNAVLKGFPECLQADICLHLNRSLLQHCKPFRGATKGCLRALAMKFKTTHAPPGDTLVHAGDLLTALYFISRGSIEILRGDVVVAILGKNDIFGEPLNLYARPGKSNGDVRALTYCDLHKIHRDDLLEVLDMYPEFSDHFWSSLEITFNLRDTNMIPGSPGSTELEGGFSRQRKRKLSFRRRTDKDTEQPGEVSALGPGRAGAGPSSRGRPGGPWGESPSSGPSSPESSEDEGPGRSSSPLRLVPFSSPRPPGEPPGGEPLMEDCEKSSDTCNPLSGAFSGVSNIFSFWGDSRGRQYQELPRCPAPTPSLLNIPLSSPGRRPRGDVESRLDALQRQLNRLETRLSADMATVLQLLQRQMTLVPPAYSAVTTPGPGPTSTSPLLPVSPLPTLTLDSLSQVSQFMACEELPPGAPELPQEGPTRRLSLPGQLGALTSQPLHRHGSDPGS
Protocol: QT prolongation is assessed by HERG inhibition measured by patch-clamp techniques or Rb^+ efflux.
For rigorous characterization of HERG inhibition the patch clamp assay is applied (Cerep, France, Catalog ref. 900-36). […] The test compounds (10 mM stock solutions) were dissolved in dimethylsulfoxide (DMSO). The solutions at 1 μM contained 0.01% DMSO.

FVIII deficient plasma = assay: Defined Dual-Pathway Thrombin Generation Assay (DDPTGA, reagent C high), FVIII deficient plasma; format: biochemical, human; details: FVIII deficient plasma
[1] = pH 7.4
Protocol: (§1) Aqueous solubility is measured in PBS at pH 7.4 either in an assay provided by Cerep (France, Catalog ref. 900-11a) or according to the following protocol. The aim of this procedure is to determine the solubility of a drug candidate (analyte) in a buffer, by estimating the saturation concentration of the candidate in the buffer using HPLC. A known concentration of the candidate in an organic solvent is used as a standard. A stock solution of the test compound in DMSO must be prepared as the initial step. […] DMSO stock-solutions are diluted to a final concentration of 50 μM with DMSO (100% reference-solution) and buffer (test-solution) to provide a minimum volume of 500 μL of each. Both solutions are shaken at 25° C. at 950 rpm in an Eppendorf “thermomixer comfort” for at least 60 min. The suspension is centrifuged at 22 330 g for at least two min and 100 μL of the supernatant is transferred into polypropylene-inserts placed in glass vials and closed by snap-ring caps. Alternatively the solutions can be prepared in microtiter plates with half of the previously described starting solvent volume. For the determination of the solubility all samples are analyzed by HPLC in triplicate. Injection volume is at least 10 μL. The obtained data are analyzed by “Chemstation-software” (Agilent, Waldbronn, Germany). The peaks from the analyses of the organic solutions are integrated and the arithmetic mean is reported as “AUC 1” (reference area of known amount injected at the HPLC). […] The ratio of the mean “AUC 2” and “AUC 1” is calculated and thus the percentage of the dissolved amount of compound in buffer is obtained and solubility can be reported in μM.

[2] = tested on: Factor VIII deficient human plasma; assay: DDPTGA (reagent B) in FVIII depleted plasma; format: biochemical; details: compounds at 50 μM and 80, 90 or 100 μM; further: key: '+' means stimulates; '−' means does not stimulate
Text: Preferably, Reagent C high is used.

physchem = details: pH 7.4
Protocol: as §1

[3] = tested on: human FVIII inhibited plasma; assay: Defined Intrinsic Thrombin Generation Assay (DITGA, triggered by FXIa and phospholipids); format: biochemical
Plasma stability = details: human
Protocol: Half-life of compounds in human or mouse plasma, or percentage of compound remaining after an incubation in human or mouse plasma, is determined as follows. In the experimental procedure, test compound concentrations are 5 μM, prepared from test compound stock solutions of 10 mM in DMSO. Propantheline is used as a standard. […] All of the samples are incubated in a water bath at 37° C. […] After a chosen duration of incubation (generally at t=60 min) each sample is mixed with a further 500 μl acetonitrile. The samples are mixed on a vortex mixer for 30 s and placed on ice for 10 min and collected for centrifugation. Samples are centrifuged at 20 000 g for 10 min at 4° C. 500 μl supernatant is transferred into a new 1.5 ml Eppendorf tube and an equal volume of acetonitrile is added. The sample is mixed again for 30 s using a vortex mixer. After a second centrifugation step (20 000 g, 10 min, 4° C.) 250 μl of the supernatant is transferred into HPLC glass vials for HPLC-MS analysis. Conditions for performing HPLC are as follows: Injection-volume is set to 20 μl. Temperature is set to 25° C. A linear gradient from 95:5 to 5:95 water:acetonitrile both containing 0:05% trifluoroacetic acid (TFA) (v/v) is applied at a flow rate of 0.3 ml/min for 10 min. The PDA-detector is scanning from 210-400 nm.

in vitro [4] = details: mouse, pH 7.4
in vitro [5] = details: human, pH 7.4

Row | Molecule | Peak IIa FEIBA EU (FVIII inhibited plasma; peptide 50 μM) | Peak IIa FVIIa EU (FVIII inhibited plasma; peptide 50 μM) | Peak Time FEIBA EU (FVIII inhibited plasma; peptide 50 μM) | Peak Time FVIIa EU (FVIII inhibited plasma; peptide 50 μM) | Peak IIa FEIBA EU (FVIII inhibited plasma; peptide 100 μM) | Peak IIa FVIIa EU (FVIII inhibited plasma; peptide 100 μM) | Peak Time FEIBA EU (FVIII inhibited plasma; peptide 100 μM) | Peak Time FVIIa EU (FVIII inhibited plasma; peptide 100 μM) | Peak IIa FVIII EU (FVIII deficient plasma; peptide 50 μM) | Peak Time FVIII EU (FVIII deficient plasma; peptide 50 μM) | Peak IIa FVIII EU (FVIII deficient plasma; peptide 100 μM) | Peak Time FVIII EU (FVIII deficient plasma; peptide 100 μM) | Aqueous solubility [1] [µM] | Activity in the Defined Dual-Pathway Thrombin Generation Assay (FVIII inhibited plasma) | further results
1 | PEG5000-RMKFDVWDLYFEIVW-NH2 [Peptide A16] | BLS (BLS = below lowest standard.) | BLS (BLS = below lowest standard.) | BLS (BLS = below lowest standard.) | BLS (BLS = below lowest standard.) | BLS (BLS = below lowest standard.) | BLS (BLS = below lowest standard.) | BLS (BLS = below lowest standard.) | BLS (BLS = below lowest standard.) | BLS (BLS = below lowest standard.) | BLS (BLS = below lowest standard.) | BLS (BLS = below lowest standard.) | BLS (BLS = below lowest standard.) | 220 | – | Classification as HERG-channel blocker (potency ranking of Roche et al.) (HERG channel): low-potency; Solubility in PBS [1]: >200 µM
2 | CC[C@H](C)[C@H](NC(=O)[C@H](CCC(=O)O)NC(=O)[C@H](Cc1ccccc1)NC(=O)[C@H](Cc1ccc(O)cc1)NC(=O)[C@H](CC(C)C)NC(=O)[C@H](CC(=O)O)NC(=O)[C@H](Cc1c[nH]c2ccccc12)NC(=O)[C@@H](NC(=O)[C@H](CC(=O)O)NC(=O)[C@H](Cc1ccccc1)NC(=O)[C@H](CCC(=O)O)NC(=O)[C@H](CCSC)NC(=O)[C@H](CCCNC(=N)N)NC(=O)CCC(=O)NCCCOCCOCCOCCCN)C(C)C)C(=O)N[C@H](C(=O)N[C@@H](Cc1c[nH]c2ccccc12)C(=O)NCCCOCCOCCOCCCNC(=O)CCC(N)=O)C(C)C [Peptide A08] ({NH(CH2)3(OCH2CH2)2O(CH2)3NH-Suc}-RMEFDVWDLYFEIVW-X1) | BLS (BLS = below lowest standard.) | BLS (BLS = below lowest standard.) | 9.1 mU/ml | 0.4 nM | – | – | – | – | BLS (BLS = below lowest standard.) | BLS (BLS = below lowest standard.) | – | – | – | possess activity | Stimulation of thrombin generation [2]: +; solubility kinetic (physchem): 11 µM (≈ 29.2 µg/mL); Thrombin peak time given as FEIBA equivalent activity ([3]; peptide 6.25 μM): 563 mU/ml; Thrombin peak time given as FEIBA equivalent activity ([3]; peptide 12.5 μM): 656 mU/ml; Thrombin peak time given as FEIBA equivalent activity ([3]; peptide 25 μM): 764 mU/ml; Thrombin peak time given as FEIBA equivalent activity ([3]; peptide 50 μM): 958 mU/ml; Thrombin peak time given as FEIBA equivalent activity ([3]; peptide 100 μM): 1213 mU/ml; Activity in the Defined Intrinsic Thrombin Generation Assay ([3]; summary): possess activity; remaining at 0.5 h, 5 μM (Plasma stability): 70%
3 | PEG5000-WSLYFEIVWE [Peptide A17] | BLS (BLS = below lowest standard.) | BLS (BLS = below lowest standard.) | BLS (BLS = below lowest standard.) | BLS (BLS = below lowest standard.) | BLS (BLS = below lowest standard.) | BLS (BLS = below lowest standard.) | BLS (BLS = below lowest standard.) | 0.1 nM | BLS (BLS = below lowest standard.) | 5.1 mU/ml | BLS (BLS = below lowest standard.) | 5.9 mU/ml | 2000 | possess activity | –
4 | CC(=O)CC(c1ccccc1)c1c(O)c2ccccc2oc1=O (centres unmarked) [Warfarin, warfarin] | – | – | – | – | – | – | – | – | – | – | – | – | – | – | recovery at 6 h, 10 μM (in vitro [4]): 88.6%; recovery at 6 h, 10 μM (in vitro [5]): 99.3%

Reference: patent publication US10822376B2, “Biologically active peptides” (Baxalta Incorporated, priority 2008, dated 2020)
